Results: patent publication US20040254162A1, “Oxazolidinone derivatives as antimicrobials” (priority 2001, published 2004)
≈ marks a conversion by molar mass, not a printed value. Where “and” joins values, the source holds several entries; their conditions need not be identical. Equal entries are not always repeated.

Key:
[1] = system: Mycobacterium tuberculosis; conditions: geometric mean MIC
[2] = system: Mycobacterium avium intracellulare; experiment: Agar dilution method, mycobacteria; type: cell-based; conditions: for MIC50 / MIC90: Mycobacterium avium, 504 h, Middlebrook 7H10 agar, 21 days; for MIC50: read-out: MIC50; for MIC90: read-out: MIC90; for G.M.: geometric mean MIC
[3] = system: Mycobacterium tuberculosis; experiment: microbe, parasite or virus in culture; conditions: 504 h
VRE 6A (Ent. faecium 6A) = experiment: MIC, agar incorporation method; conditions: agar incorporation
MRSA 562 [4] = experiment: In vivo activity against MRSA 562 (ED50); set-up: species or system Methicillin Resistant Staphylococcus aureus; conditions: PO; MRSA 562 infection
S. pneum AB 34 = experiment: MIC, agar incorporation method; conditions: agar incorporation
E. faecalis = experiment: Summary of in vitro activity (MIC); conditions: E. faecalis, Number 7
Strep. pne. ATCC 6303 = experiment: MIC, agar incorporation method; conditions: agar incorporation
MRSA 562 [5] = experiment: MIC, agar incorporation method
[6] = Changes in MIC under different conditions: agar MIC; type: cell-based; conditions: strain not given
Ent. faecalis ATCC 29212 = experiment: MIC, agar incorporation method; conditions: agar incorporation
MRSA 15187 = experiment: MIC, agar incorporation method; conditions: agar incorporation
S. aureus = experiment: Summary of in vitro activity (MIC); conditions: S. aureus, Number 8
S. pneumoniae = experiment: Summary of in vitro activity (MIC); conditions: S. pneumoniae, Number 19
S. aureus ATCC 25923 = experiment: MIC, agar incorporation method; conditions: agar incorporation
Strep. pyog. ATCC 19615 = experiment: MIC, agar incorporation method; conditions: agar incorporation
[7] = Changes in MIC under different conditions: broth MIC; type: cell-based; conditions: strain not given
MRSA 33 = experiment: MIC, agar incorporation method; conditions: agar incorporation
G +ve bacteria = experiment: Summary of in vitro activity (MIC); conditions: G +ve, Number 49
Fusobacterium necrogenes = experiment: Agar dilution MIC, anaerobes; type: cell-based; conditions: single isolate, anaerobic agar dilution
anaerobic bacteria = experiment: Agar dilution method for anaerobic bacteria, summary; type: cell-based; conditions: anaerobes
Eubacterium leutum = experiment: Agar dilution MIC, anaerobes; type: cell-based; conditions: single isolates, anaerobic agar dilution
[8] = system: Prevotella melaninogenica; experiment: Agar dilution MIC, anaerobes; type: cell-based; conditions: single isolates, anaerobic agar dilution
[9] = system: Prevotella (Bacteroides) disiens; experiment: Agar dilution MIC, anaerobes; type: cell-based; conditions: single isolates, anaerobic agar dilution
[10] = system: Peptostreptococcus asaccharolyticus; experiment: Agar dilution MIC, anaerobes; type: cell-based; conditions: single isolates, anaerobic agar dilution
Prevotella intermedia = experiment: Agar dilution MIC, anaerobes; type: cell-based; conditions: single isolates, anaerobic agar dilution
P. acnes = experiment: Agar dilution MIC, anaerobes; type: cell-based; conditions: single isolates, anaerobic agar dilution
[11] = system: Peptostreptococcus magnum; experiment: Agar dilution MIC, anaerobes; type: cell-based; conditions: single isolates, anaerobic agar dilution
Clostridium difficile = experiment: Agar dilution MIC, anaerobes; type: cell-based; conditions: single isolates, anaerobic agar dilution
[12] = system: Peptostreptococcus prevotii; experiment: Agar dilution MIC, anaerobes; type: cell-based; conditions: single isolates, anaerobic agar dilution
Fusobacterium varium = experiment: Agar dilution MIC, anaerobes; type: cell-based; conditions: single isolates, anaerobic agar dilution

SMILES: CC[C@H]1OC(=O)[C@H](C)[C@@H](O[C@H]2C[C@@](C)(OC)[C@@H](O)[C@H](C)O2)[C@H](C)[C@@H](O[C@@H]2O[C@H](C)C[C@H](N(C)C)[C@H]2O)[C@](C)(OC)C[C@@H](C)C(=O)[C@H](C)[C@@H](O)[C@]1(C)O [Clarithromycin]
- G.M. [1]: 12.69 µg/mL
- MIC50 [2]: 1 µg/mL (≈ 1.34 µM)
- MIC90 [2]: 4 µg/mL (≈ 5.35 µM)
- G.M. [2]: 1.554 µg/mL
- MIC50 [3]: 16 µg/mL (≈ 21.4 µM)
- MIC90 [3]: 32 µg/mL (≈ 42.8 µM)

SMILES: NNC(=O)c1ccncc1 [Isoniazid]
- G.M. [1]: 3.17 µg/mL
- MIC50 [2]: 32 µg/mL (≈ 233 µM)
- MIC90 [2]: 64 µg/mL (≈ 467 µM)
- G.M. [2]: 18.149 µg/mL
- MIC50 [3]: 8 µg/mL (≈ 58.3 µM)
- MIC90 [3]: 64 µg/mL (≈ 467 µM)

SMILES: CC(=O)NC[C@H]1CN(c2ccc(N3CCN(C(=O)c4ccc([N+](=O)[O-])s4)CC3)c(F)c2)C(=O)O1.Cl [Compound No. 29, (S)-N[[3-[3-Fluoro-4-[N-1[4-(5-nitro-2-thienoyl)]piperazinyl]phenyl]2-oxo-5-oxazolidinyl]methyl]acetamide hydrochloride]
- MIC VRE 6A (VRE 6A (Ent. faecium 6A)): 0.5 µg/mL
- ED50 (mg/kg body weight) PO (MRSA 562 [4]): >25 mg/kg body weight
- MIC S. pneum AB 34 (S. pneum AB 34): 1 µg/mL
- MIC50 (E. faecalis): 1 µg/mL
- MIC90 (E. faecalis): 1 µg/mL
- MIC S. pneum 6303 (Strep. pne. ATCC 6303): 1 µg/mL
- MIC (MRSA 562 [5]; MRSA 562, Table 5): <0.1 µg/mL
- MIC MRSA 562 (MRSA 562 [5]; agar incorporation, Table 1): <0.1 µg/mL
- Agar MIC [6]: <0.1 µg/mL
- MIC E. faecalis 29212 (Ent. faecalis ATCC 29212): 1 µg/mL
- MIC MRSA 15187 (MRSA 15187): <0.1 µg/mL
- MIC50 (S. aureus): 0.064 µg/mL
- MIC90 (S. aureus): 0.25 µg/mL
- MIC50 (S. pneumoniae): 1 µg/mL
- MIC90 (S. pneumoniae): 1 µg/mL
- MIC S. aureus 25923 (S. aureus ATCC 25923): 0.25 µg/mL
- MIC S. pyogenes 19615 (Strep. pyog. ATCC 19615): 1 µg/mL
- Broth MIC +50% Sheep serum ([7]; +50% sheep serum): 0.5 µg/mL
- Broth MIC Normal MH broth ([7]; normal MH broth): 0.25 µg/mL
- MIC MRSA 33 (MRSA 33): <0.1 µg/mL
- MIC50 (G +ve bacteria): 1 µg/mL
- MIC90 (G +ve bacteria): 1 µg/mL

SMILES: CC1(C)S[C@@H]2[C@H](NC(=O)[C@H](N)c3ccc(O)cc3)C(=O)N2[C@H]1C(=O)O [Amox]
- MIC Fusobacterium necrogenes (Fusobacterium necrogenes): 0.5 µg/mL (≈ 1.37 µM)
- Geometric Mean (anaerobic bacteria): 1.366 µg/mL
- MIC Range (anaerobic bacteria): 0.062 to 256 µg/mL
- MIC50 (anaerobic bacteria; Wilkins Chalgren agar, 48 hour): 1 µg/mL (≈ 2.74 µM)
- MIC90 (anaerobic bacteria; Wilkins Chalgren agar, 48 hour): 256 µg/mL (≈ 701 µM)
- MIC Eubacterium leutum (Eubacterium leutum): 1 µg/mL (≈ 2.74 µM)
- MIC Prevotella melaninogenica [8]: 64 µg/mL (≈ 175 µM)
- MIC Prevotella (Bacteroides) disiens [9]: >128 µg/mL
- MIC Peptostreptococcus asaccharolyticus [10]: 0.25 µg/mL (≈ 0.684 µM)
- MIC Prevotella intermedia (Prevotella intermedia): 4 µg/mL (≈ 10.9 µM)
- MIC P. acnes (P. acnes): 0.25 µg/mL (≈ 0.684 µM)
- MIC Peptostreptococcus magnum [11]: 0.25 µg/mL and 0.5 µg/mL
- MIC Clostridium difficile (Clostridium difficile): 1 µg/mL and 2 µg/mL
- MIC Peptostreptococcus prevotii [12]: 0.25 µg/mL (≈ 0.684 µM)
- MIC Fusobacterium varium (Fusobacterium varium): 1 µg/mL (≈ 2.74 µM)
